# According to patent publication US20230398218A1, “RAS NEOANTIGENS AND USES THEREOF” (priority 2020, published 2023):
# Where two headings read alike, the source gives them in different places. No end group written: not given here.
# What was measured:
# HLA A02.01 [1] = molecular target: T1, HLA A02.01 (Homo sapiens, UniProt P04439, D140Y/D185E/D98H/E176V/E277Q/G131W/G231S/I119V/I121R/I166T/I218V/L300P/L318F/N151K/N90K/P208A/P217A/Q86G/Q94H/R138H/R169H/T345S); test: MHC-I peptide binding affinity assay (displacement of radiolabeled reference peptide)
# HLA A01.01 [2] = molecular target: T2, HLA A01.01 (Homo sapiens, UniProt P04439, A114D/A174V/A182V/D101N/D185E/E176A/E190D/L180R/Q94H/R68K/S129P/T187R/V100A/V91M/W191G); test: as above
# Excerpt: (§1) 31:813 (1994). […] 149:1896 (1992)).
# HLA A02.01 [3] = molecular target: T1, HLA A02.01; test: MHC-I peptide binding stability assay (pMHC-I dissociation half-life); conditions: HLA allele A02.01
# Method: (§2) Briefly, synthetic genes encoding biotinylated MHC-I heavy and light chains are expressed in E. coli and purified from inclusion bodies using standard methods. The light chain (β2m) is radio-labeled with iodine (1251), and combined with the purified MHC-I heavy chain and peptide of interest at 18° C. to initiate pMHC-I complex formation. These reactions are carried out in streptavidin coated microplates to bind the biotinylated MHC-I heavy chains to the surface and allow measurement of radiolabeled light chain to monitor complex formation. Dissociation is initiated by addition of higher concentrations of unlabeled light-chain and incubation at 37° C. Stability is defined as the length of time in hours it takes for half of the complexes to dissociate, as measured by scintillation counts.
# HLA A24.02 [4] = test: MHC-I peptide binding affinity assay (displacement of radiolabeled reference peptide); parameters: species or system human; conditions: Table 11, EGFR T790M peptides; HLA allele A24.02
# Excerpt: as §1
# HLA A01.01 [5] = molecular target: T2, HLA A01.01; test: MHC-I peptide binding stability assay (pMHC-I dissociation half-life); conditions: HLA allele A01.01
# Method: as §2
# HLA A03.01 [6] = molecular target: T3, HLA A03.01 (Homo sapiens, UniProt P04439); test: MHC-I peptide binding affinity assay (displacement of radiolabeled reference peptide); parameters: made in house; host or cells: E. coli; conditions: Table 10, BTK C481S peptides; HLA allele A03.01
# Excerpt: as §1
# HLA A03.01 [7] = molecular target: T3, HLA A03.01; test: MHC-I peptide binding stability assay (pMHC-I dissociation half-life); parameters: made in house; host or cells: E. coli; conditions: Table 10, BTK C481S peptides; HLA allele A03.01
# Method: as §2
# HLA B07.02 = HLA B07.02 (Homo sapiens, UniProt P01889); test: MHC-I peptide binding affinity assay (displacement of radiolabeled reference peptide); conditions: Table 11, EGFR T790M peptides; HLA allele B07.02
# Excerpt: as §1
# HLA A24.02 [8] = test: MHC-I peptide binding stability assay (pMHC-I dissociation half-life); parameters: species or system human; conditions: Table 11, EGFR T790M peptides; HLA allele A24.02
# Method: as §2
# HLA B08.02 = test: MHC-I peptide binding affinity assay (displacement of radiolabeled reference peptide); parameters: species or system human; conditions: Table 11, EGFR T790M peptides; HLA allele B08.02
# Excerpt: as §1
# HLA B08.01 = HLA B08.01 (Homo sapiens, UniProt P01889, A93T/A95T/D138N/E176V/E187T/K202T/Q94N/R180D/S35A/V36M/Y33D/Y91F); conditions: read-out: Affinity
# Excerpt: As used herein, the term “affinity” refers to a measure of the strength of binding between two members of a binding pair, for example, an HLA-binding peptide and a class I or II HLA. K D is the dissociation constant and has units of molarity. The affinity constant is the inverse of the dissociation constant. An affinity constant is sometimes used as a generic term to describe this chemical entity. It is a direct measure of the energy of binding. Affinity may be determined experimentally, for example by surface plasmon resonance (SPR) using commercially available Biacore SPR units. […] Likewise, ln(IC50) refers to the natural log of the IC50. Koff refers to the off-rate constant, for example, for dissociation of an HLA-binding peptide and a class I or II HLA. […] Given the conditions in which the assays are run (i.e., limiting HLA protein and labeled reference peptide concentrations), these values approximate KD values. […] Alternatively, binding can be expressed relative to binding by a reference standard peptide. For example, can be based on its IC50, relative to the IC50 of a reference standard peptide.
# In brief, MHCI complexes were prepared and bound to radiolabeled reference peptides. Peptides were incubated at varying concentrations with these complexes for 2 days, and the amount of remaining radiolabeled peptide bound to MHCI was measured using size exclusion gel-filtration.
# [9] = system: T2 or HLA-A0201 transfected C1Rs pulsed with peptide; test: IFNγ ELISpot assay; format: cell-based, human; conditions: number of donors responding out of 2; HLA-A02:01 peptides
# Method: In some embodiments the immunogenicity is measured by measuring a protein or peptide expressed by the T cell, using ELISpot assay. Peptide-specific T cells are functionally enumerated using the ELISpot assay (BD Biosciences), which measures the release of IFNγ from T cells on a single cell basis. Target cells (T2 or HLA-A0201 transfected C1Rs) were pulsed with 10 μM peptide for one hour at 37 degrees C., and washed three times. 1×10^5 peptide-pulsed targets are co-cultured in the ELISPOT plate wells with varying concentrations of T cells (5×10^2 to 2×10^3) taken from the immunogenicity culture. Plates are developed according to the manufacturer's protocol, and analyzed on an ELISPOT reader (Cellular Technology Ltd.) with accompanying software. Spots corresponding to the number of IFN gamma-producing T cells are reported as the absolute number of spots per number of T cells plated. T cells expanded on modified peptides are tested not only for their ability to recognize targets pulsed with the modified peptide, but also for their ability to recognize targets pulsed with the parent peptide. Some exemplary data are shown below in Table 13.
# [10] = system: MHC protein encoded by HLA-C03:04 allele; test: Identification of MHC-bound epitope by mass spectrometry; format: cell-based, human; conditions: MHC encoded by HLA-C03:04 allele
# Excerpt: (§3) In some embodiments, antigenic peptides comprising an epitope may be identified by mass spectrometry to be bound to an MHC encoded by an HLA.
# (§4) Provided herein are KRAS epitopes each of which specifically can bind to the MHC protein encoded by the alleles indicated in right hand column in the same row of Table 1, that have been identified to bind to the MHC protein by mass spectrometry, and that each epitope is presented to T cells by association with the MHC protein in the respective right hand column for each row in Table 1.
# (§5) To assess whether antigens could be processed and presented from the larger polypeptide context, peptides eluted from HLA molecules isolated from cells expressing the genes of interest were analyzed by tandem mass spectrometry (MS/MS).
# [11] = system: MHC protein encoded by HLA-C03:03 allele; test: as above; format: cell-based, human; conditions: MHC encoded by HLA-C03:03 allele
# Excerpt: as §3, §4, §5
# HLA A03.01 [12] = molecular target: T3, HLA A03.01; test: HLA-peptide elution and targeted MS/MS (PRM) presentation assay; format: cell-based; parameters: expressed in transfected cells; SW620 cells (lentiviral transduction)
# Method: as §5
# For analysis of presentation of RAS neoantigens, cell lines were utilized that have RAS mutations naturally or were lentivirally transduced to express the mutated RAS gene. HLA molecules were either isolated based on the natural expression of the cell lines or the cell lines were lentivirally transduced or transiently transfected to express the HLA of interest. […] Greater than 50 million cells expressing peptides encoded by a mutant RAS peptide were cultured and peptides were eluted from HLA-peptide complexes using an acid wash. Eluted peptides were then analyzed by targeted MS/MS with parallel reaction monitoring (PRM). […] Endogenous peptide spectrum is shown in the top panel and the corresponding stable heavy-isotopically labeled spectrum is shown in the bottom panel.
# [13] = Table 11, EGFR T790M peptides, HLA allele A02.01, read-out: Affinity
# [14] = Table 10, BTK C481S peptides, HLA allele A01.01, read-out: Affinity
compound,measurement,setting,value
CC[C@H](C)[C@H](NC(=O)[C@H](CC(C)C)NC(=O)[C@H](CCC(N)=O)NC(=O)[C@@H](NC(=O)[C@@H](NC(=O)[C@H](CO)NC(=O)[C@@H](NC(=O)[C@H](CC(C)C)NC(=O)[C@@H](N)CS)[C@@H](C)O)[C@@H](C)O)C(C)C)C(=O)N[C@@H](CCSC)C(=O)O,IC50,HLA A02.01 [1],537 nM
same,IC50,HLA A01.01 [2],8280 nM
CC[C@H](C)[C@H](N)C(=O)N[C@@H](CCSC)C(=O)N[C@@H](CCC(N)=O)C(=O)N[C@@H](CC(C)C)C(=O)N[C@@H](CCSC)C(=O)N1CCC[C@H]1C(=O)N[C@@H](Cc1ccccc1)C(=O)NCC(=O)N[C@@H](CS)C(=O)N[C@@H](CC(C)C)C(=O)O,IC50,HLA A02.01 [1]; [13],653 nM
same,Stability (half-life (hr.)),"HLA A02.01 [3]; Table 11, EGFR T790M peptides",30.94 min
same,IC50,HLA A24.02 [4],14100 nM
CC[C@H](C)[C@H](NC(=O)[C@@H](N)CC(C)C)C(=O)N[C@@H](CCSC)C(=O)N[C@@H](CCC(N)=O)C(=O)N[C@@H](CC(C)C)C(=O)N[C@@H](CCSC)C(=O)N1CCC[C@H]1C(=O)N[C@@H](Cc1ccccc1)C(=O)NCC(=O)N[C@@H](CS)C(=O)O,IC50,HLA A02.01 [1]; [13],132 nM
same,Stability (half-life (hr.)),"HLA A02.01 [3]; Table 11, EGFR T790M peptides",22.88 min
CSCC[C@H](N)C(=O)N[C@@H](C)C(=O)N[C@@H](CC(N)=O)C(=O)NCC(=O)N[C@@H](CO)C(=O)N[C@@H](CC(C)C)C(=O)N[C@@H](CC(C)C)C(=O)N[C@@H](CC(N)=O)C(=O)N[C@@H](Cc1ccc(O)cc1)C(=O)O,Stability (half-life (hr.)),"HLA A01.01 [5]; Table 10, BTK C481S peptides",12.98 min
same,IC50,HLA A03.01 [6],35.6 nM
same,Stability (half-life (hr.)),HLA A03.01 [7],14.3 min
same,IC50,HLA A01.01 [2]; [14],439 nM
CSCC[C@H](NC(=O)[C@H](CC(C)C)NC(=O)[C@H](CCC(N)=O)NC(=O)[C@@H](N)CCSC)C(=O)N1CCC[C@H]1C(=O)N[C@@H](Cc1ccccc1)C(=O)NCC(=O)N[C@@H](CS)C(=O)N[C@@H](CC(C)C)C(=O)O,IC50,HLA A02.01 [1]; [13],116 nM
same,Stability (half-life (hr.)),"HLA A02.01 [3]; Table 11, EGFR T790M peptides",22.1 min
same,IC50,HLA B07.02,1590 nM
CSCC[C@H](NC(=O)[C@H](CC(C)C)NC(=O)[C@H](CCC(N)=O)NC(=O)[C@@H](N)CCSC)C(=O)N1CCC[C@H]1C(=O)N[C@@H](Cc1ccccc1)C(=O)NCC(=O)N[C@@H](CS)C(=O)N[C@@H](CC(C)C)C(=O)N[C@@H](CC(C)C)C(=O)O,IC50,HLA A02.01 [1]; [13],16.3 nM
same,Stability (half-life (hr.)),"HLA A02.01 [3]; Table 11, EGFR T790M peptides",22.87 min
same,IC50,HLA A24.02 [4],18900 nM
CC[C@H](C)[C@H](NC(=O)[C@H](CC(C)C)NC(=O)[C@@H](N)CCC(N)=O)C(=O)N[C@@H](CCSC)C(=O)N[C@@H](CCC(N)=O)C(=O)N[C@@H](CC(C)C)C(=O)N[C@@H](CCSC)C(=O)N1CCC[C@H]1C(=O)N[C@@H](Cc1ccccc1)C(=O)O,IC50,HLA A02.01 [1]; [13],193 nM
same,Stability (half-life (hr.)),HLA A24.02 [8],22.12 min
same,Stability (half-life (hr.)),"HLA A02.01 [3]; Table 11, EGFR T790M peptides",20.44 min
same,IC50,HLA B08.02,5590 nM
same,IC50,HLA A24.02 [4],2030 nM
CSCC[C@H](NC(=O)[C@H](CCC(=O)O)NC(=O)[C@H](CCCNC(=N)N)NC(=O)[C@H](CC(C)C)NC(=O)[C@H](Cc1ccc(O)cc1)NC(=O)[C@H](CC(N)=O)NC(=O)[C@H](CC(C)C)NC(=O)[C@H](CC(C)C)NC(=O)[C@@H](N)CO)C(=O)O,Stability (half-life (hr.)),"HLA A02.01 [3]; Table 10, BTK C481S peptides",182.6 min
same,IC50,HLA B08.01,960 nM
CC[C@H](C)[C@H](NC(=O)[C@H](CC(C)C)NC(=O)[C@H](CCC(N)=O)NC(=O)[C@@H](N)C(C)C)C(=O)N[C@@H](CCSC)C(=O)N[C@@H](CCC(N)=O)C(=O)N[C@@H](CC(C)C)C(=O)N[C@@H](CCSC)C(=O)N1CCC[C@H]1C(=O)N[C@@H](Cc1ccccc1)C(=O)O,IC50,HLA A02.01 [1]; [13],4940 nM
same,IC50,HLA A24.02 [4],4100 nM
FLGYLILGV,Immunogenicity (# donors/2),[9],1 # donors/2
FLTPKKLQCV,Immunogenicity (# donors/2),[9],1 # donors/2
FQNSYTIGL,Immunogenicity (# donors/2),[9],2 # donors/2
FQYPEFSIEL,Immunogenicity (# donors/2),[9],1 # donors/2
GACGVGKSA,"binding to MHC protein, identified by mass spectrometry",[10],specifically binds
GAVGVGKSA,"binding to MHC protein, identified by mass spectrometry",[11],specifically binds
ILNDTGCHYV,Immunogenicity (# donors/2),[9],1 # donors/2
IMQLMPFGC,IC50,HLA A02.01 [1]; [13],1210 nM
same,Stability (half-life (hr.)),"HLA A02.01 [3]; Table 11, EGFR T790M peptides",22.21 min
LIMQLMPFG,IC50,HLA A02.01 [1]; [13],3340 nM
LLANDLMLI,Immunogenicity (# donors/2),[9],2 # donors/2
LLANGRMPTV,Immunogenicity (# donors/2),[9],2 # donors/2
LTSTVQLIM,Stability (half-life (hr.)),"HLA A01.01 [5]; Table 11, EGFR T790M peptides",6.222 min
same,IC50,"HLA A01.01 [2]; Table 11, EGFR T790M peptides, HLA allele A01.01, read-out: Affinity",2890 nM
QLIMQLMPFG,IC50,HLA A02.01 [1]; [13],5210 nM
RLIWLVKMV,Immunogenicity (# donors/2),[9],1 # donors/2
STVQLIMQL,IC50,HLA A02.01 [1],7260 nM
VLDCCISLL,Immunogenicity (# donors/2),[9],1 # donors/2
VVVGAVGVGK,HLA-eluted peptide detected by mass spectrometry,HLA A03.01 [12]; 293T cells lentivirally transduced with RAS G12V mutation and HLA-A*03:01 gene,detected
same,HLA-eluted peptide detected by mass spectrometry,"HLA A03.01 [12]; SW620 cells naturally expressing RAS G12V, lentivirally transduced with HLA-A*03:01 gene",detected
YMANGSLLNY,Stability (half-life (hr.)),"HLA A01.01 [5]; Table 10, BTK C481S peptides",51.97 min
same,IC50,HLA A03.01 [6],95.9 nM
same,Stability (half-life (hr.)),HLA A03.01 [7],16.75 min
same,IC50,HLA A01.01 [2]; [14],13.2 nM
